Assays:
[1] = biological target: T1, CDK12 (aa686-1082)/Cyclin K complex (Homo sapiens, UniProt Q9NYV4); experiment: CDK12 kinase inhibition assay (Caliper/LabChip EZ Reader); format: biochemical; details: CDK12 (aa686-1082)/Cyclin K 50 nM, ATP 2 mM, 3 hr at 27° C.
T1 construct: CDK12 (aa686-1082)/Cyclin K complex
Outline: (§1)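 Incubation times were set for ~20% (±5%) peptide phosphorylation by uninhibited enzyme: CDK7 35 min, CDK2 35 min (0.5 nM complex, 2 μM 5-FAM-CDK7tide, 2 mM MgCl2), CDK12 3 hr (50 nM, 2 μM 5-FAM-CDK9tide, 2 mM MgCl2), CDK9 15 min (8 nM, 2 μM 5-FAM-CDK9tide, 10 mM MgCl2). Read-out on LabChip EZ Reader, 27° C.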

HCC70 cells = experiment: Inhibition of proliferation of HCC70 cells (CyQUANT Direct, 72 hour); format: cell-based, human; details: read-out: Inhibition of Proliferation of HCC70 Cells (calculated IC50)
Protocol: HCC70 cells: HCC70 cells are a cell line derived from human triple negative breast cancer. Representative compounds of the invention were tested at different concentrations (from 4 μM to […]; 0.5 log serial dilutions) for their ability to inhibit the proliferation of HCC70 cells. Known CDK inhibitors dinaciclib or N-((1S,3R)-3-((5-chloro-4-(1H-indol-3-yl) pyrimidin-2-yl)amino)cyclohexyl)-5-((E)-4-(dimethylamino)but-2-enamido)picolinamide and triptolide were used as positive controls. Cells were grown in ATCC-formulated RPMI-1640 Medium (ATCC 30-2001)+10% FBS. The cells were cultured at 37° C. in a humidified chamber in the presence of 5% CO2. Proliferation assays were conducted over a 72 hour time period. CyQUANT® Direct Cell Proliferation Assay (Life Technologies, Chicago, Ill. USA) was used to assess the anti-proliferative effects of the compounds following manufacturer's directions and utilizing the reagents supplied with the CyQUANT® Direct Cell kit.

[2] = biological target: CDK7/Cyclin H/MAT1 complex (Homo sapiens, UniProt P50613); experiment: CDK7 kinase inhibition assay (Caliper/LabChip EZ Reader); format: biochemical; details: CDK7/Cyclin H/MAT1 6 nM, ATP 2 mM, 35 min at 27° C.
Outline: as §1

CDK9/Cyclin T1 complex = CDK9/Cyclin T1 complex (Homo sapiens, UniProt P50750); experiment: CDK9 kinase inhibition assay (Caliper/LabChip EZ Reader); format: biochemical; details: CDK9/Cyclin T1 8 nM, ATP 2 mM, 15 min at 27° C.
Outline: as §1

CDK2/Cyclin E1 complex = CDK2/Cyclin E1 complex (Homo sapiens, UniProt P24941); experiment: CDK2 kinase inhibition assay (Caliper/LabChip EZ Reader); format: biochemical; details: CDK2/Cyclin E1 0.5 nM, ATP 2 mM, 35 min at 27° C.
Outline: as §1

T1 sequence (Q9NYV4 686-1082): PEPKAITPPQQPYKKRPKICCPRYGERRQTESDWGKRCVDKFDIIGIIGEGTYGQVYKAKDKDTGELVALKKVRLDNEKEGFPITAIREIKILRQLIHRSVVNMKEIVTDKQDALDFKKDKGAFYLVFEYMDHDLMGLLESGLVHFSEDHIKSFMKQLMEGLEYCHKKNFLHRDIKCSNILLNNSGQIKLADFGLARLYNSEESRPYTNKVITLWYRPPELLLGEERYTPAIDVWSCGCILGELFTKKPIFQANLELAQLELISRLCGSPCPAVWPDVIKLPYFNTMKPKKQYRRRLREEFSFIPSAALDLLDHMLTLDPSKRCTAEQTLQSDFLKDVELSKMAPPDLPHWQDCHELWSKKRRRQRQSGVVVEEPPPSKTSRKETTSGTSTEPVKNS
T1 sequence (O75909 whole entry partner, the tested form may be a part): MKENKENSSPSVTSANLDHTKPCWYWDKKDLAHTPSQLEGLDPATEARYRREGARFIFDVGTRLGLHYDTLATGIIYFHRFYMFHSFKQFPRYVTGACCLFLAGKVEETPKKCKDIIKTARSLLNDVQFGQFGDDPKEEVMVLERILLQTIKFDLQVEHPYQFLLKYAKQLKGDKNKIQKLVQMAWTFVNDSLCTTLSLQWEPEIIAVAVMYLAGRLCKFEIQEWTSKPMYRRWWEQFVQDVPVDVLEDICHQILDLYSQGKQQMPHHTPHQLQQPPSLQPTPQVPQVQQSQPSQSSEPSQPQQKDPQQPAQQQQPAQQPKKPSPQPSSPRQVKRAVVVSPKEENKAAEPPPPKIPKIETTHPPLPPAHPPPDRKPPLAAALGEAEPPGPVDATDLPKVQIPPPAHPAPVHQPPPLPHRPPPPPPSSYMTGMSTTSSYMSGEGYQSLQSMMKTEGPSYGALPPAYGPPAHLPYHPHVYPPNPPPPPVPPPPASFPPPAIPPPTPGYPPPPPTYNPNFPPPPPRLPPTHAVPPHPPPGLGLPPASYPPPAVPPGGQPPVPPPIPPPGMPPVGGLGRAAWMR
CDK9/Cyclin T1 complex, sequence (P50750 whole entry): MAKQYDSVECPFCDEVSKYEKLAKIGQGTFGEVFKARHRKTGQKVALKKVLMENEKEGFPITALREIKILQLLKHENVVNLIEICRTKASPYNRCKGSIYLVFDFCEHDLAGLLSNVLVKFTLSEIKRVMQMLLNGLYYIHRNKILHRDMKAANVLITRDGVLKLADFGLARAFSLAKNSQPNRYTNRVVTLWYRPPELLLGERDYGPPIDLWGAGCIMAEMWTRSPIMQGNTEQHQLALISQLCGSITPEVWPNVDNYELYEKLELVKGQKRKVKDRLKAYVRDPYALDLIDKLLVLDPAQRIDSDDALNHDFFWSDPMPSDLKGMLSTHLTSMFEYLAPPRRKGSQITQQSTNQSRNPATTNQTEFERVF
CDK9/Cyclin T1 complex, sequence (O60563 whole entry partner): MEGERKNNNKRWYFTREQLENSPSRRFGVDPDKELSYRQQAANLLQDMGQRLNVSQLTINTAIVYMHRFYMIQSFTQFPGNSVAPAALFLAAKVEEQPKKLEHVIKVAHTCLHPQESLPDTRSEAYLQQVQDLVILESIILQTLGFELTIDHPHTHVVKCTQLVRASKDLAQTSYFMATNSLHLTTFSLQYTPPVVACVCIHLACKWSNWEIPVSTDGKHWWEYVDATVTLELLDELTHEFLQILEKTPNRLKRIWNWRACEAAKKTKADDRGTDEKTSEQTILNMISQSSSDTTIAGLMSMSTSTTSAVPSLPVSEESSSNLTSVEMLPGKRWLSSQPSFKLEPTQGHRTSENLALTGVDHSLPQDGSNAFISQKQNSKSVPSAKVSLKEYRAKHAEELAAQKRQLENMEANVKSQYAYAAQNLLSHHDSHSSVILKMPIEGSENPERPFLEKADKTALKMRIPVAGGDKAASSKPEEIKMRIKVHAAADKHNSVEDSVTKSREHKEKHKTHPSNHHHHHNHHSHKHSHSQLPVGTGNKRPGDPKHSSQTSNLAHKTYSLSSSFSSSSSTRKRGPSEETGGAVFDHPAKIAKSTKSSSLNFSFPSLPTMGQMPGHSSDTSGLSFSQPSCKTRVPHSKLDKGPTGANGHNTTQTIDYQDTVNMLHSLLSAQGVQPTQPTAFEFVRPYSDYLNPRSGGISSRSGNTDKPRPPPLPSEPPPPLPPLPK
CDK7/Cyclin H/MAT1 complex, sequence (P50613 whole entry): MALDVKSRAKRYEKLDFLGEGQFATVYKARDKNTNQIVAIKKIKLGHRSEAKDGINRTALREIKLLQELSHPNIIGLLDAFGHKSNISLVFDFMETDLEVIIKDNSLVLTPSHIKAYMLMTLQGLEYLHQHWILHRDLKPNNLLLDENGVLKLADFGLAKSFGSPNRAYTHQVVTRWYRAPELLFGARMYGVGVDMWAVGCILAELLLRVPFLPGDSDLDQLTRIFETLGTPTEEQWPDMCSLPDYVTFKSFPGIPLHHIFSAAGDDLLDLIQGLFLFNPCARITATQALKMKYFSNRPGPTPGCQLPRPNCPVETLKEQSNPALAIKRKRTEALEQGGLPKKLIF
CDK7/Cyclin H/MAT1 complex, sequence (P51946 whole entry partner): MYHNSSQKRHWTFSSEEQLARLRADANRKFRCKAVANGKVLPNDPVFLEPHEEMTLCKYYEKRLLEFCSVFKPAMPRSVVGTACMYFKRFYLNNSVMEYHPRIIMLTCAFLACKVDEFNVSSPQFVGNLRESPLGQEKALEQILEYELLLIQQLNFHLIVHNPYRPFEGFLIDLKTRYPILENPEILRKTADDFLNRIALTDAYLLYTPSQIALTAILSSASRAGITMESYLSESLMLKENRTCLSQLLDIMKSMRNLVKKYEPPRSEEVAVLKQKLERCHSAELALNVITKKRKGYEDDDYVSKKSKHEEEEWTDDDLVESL
CDK7/Cyclin H/MAT1 complex, sequence (P51948 whole entry partner): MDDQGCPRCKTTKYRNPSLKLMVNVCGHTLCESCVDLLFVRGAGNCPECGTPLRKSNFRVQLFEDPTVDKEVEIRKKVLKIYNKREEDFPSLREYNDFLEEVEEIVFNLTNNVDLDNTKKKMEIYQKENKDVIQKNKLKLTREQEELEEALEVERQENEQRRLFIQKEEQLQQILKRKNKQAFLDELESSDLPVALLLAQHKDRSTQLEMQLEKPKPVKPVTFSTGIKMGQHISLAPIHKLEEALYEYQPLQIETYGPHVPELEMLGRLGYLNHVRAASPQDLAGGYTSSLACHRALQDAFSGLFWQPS

| SMILES | IC50 [1] [nM] | IC50 [2] [nM] | IC50 (CDK9/Cyclin T1 complex) [nM] | IC50 (CDK2/Cyclin E1 complex) [nM] | IC50 (HCC70 cells) [nM] |
| --- | --- | --- | --- | --- | --- |
| FC(F)(F)c1cnc(N[C@H]2CCCNC2)nc1-c1c[nH]c2cc(-c3cccc(Oc4ccccc4)c3)ccc12 [Compound 341] | ≥ 5000 | 200 to 5000 | ≥ 5000 | ≥ 5000 | 1000 to 5000 |
| FC(F)(F)c1cnc(NC2CCCNC2)nc1-c1c[nH]c2cc(-c3ccc4c(c3)OCCO4)ccc12 (stereo not drawn) [Compound 342] | 200 to 5000 | 20 to 200 | ≥ 5000 | ≥ 5000 | 1000 to 5000 |
| FC(F)(F)c1cnc(N[C@H]2CCCNC2)nc1-c1c[nH]c2cc(-c3ccc4ncsc4c3)ccc12 [Compound 343] | 200 to 5000 | 20 to 200 | 200 to 5000 | 200 to 5000 | 100 to 1000 |
| FC(F)(F)c1cnc(N[C@H]2CCCNC2)nc1-c1c[nH]c2cc(-c3cccc4cnccc34)ccc12 [Compound 344] | 200 to 5000 | 20 to 200 | ≥ 5000 | 200 to 5000 | 100 to 1000 |
| Fc1cccc(-c2ccc3c(-c4nc(NC5CCCNC5)ncc4C(F)(F)F)c[nH]c3c2)c1 (stereo not drawn) [Compound 345] | ≥ 5000 | 200 to 5000 | ≥ 5000 | ≥ 5000 | 1000 to 5000 |
| CC(C)S(=O)(=O)c1ccc2c(-c3nc(NC4CCCNC4)ncc3C(F)(F)F)c[nH]c2c1 (stereo not drawn) [Compound 346] | 200 to 5000 | 20 to 200 | 200 to 5000 | 200 to 5000 | 100 to 1000 |
| O=S1(=O)CCn2cc(-c3nc(N[C@H]4CCCNC4)ncc3C(F)(F)F)c3cccc1c32 [Compound 348] | ≥ 5000 | 20 to 200 | ≥ 5000 | ≥ 5000 | 100 to 1000 |
| O=C(c1ccc2c(-c3nc(NC4CCCNC4)ncc3C(F)(F)F)c[nH]c2c1)N1CC(O)C(F)(F)C1 (stereo not drawn) [Compound 349] | 200 to 5000 | < 20 | 200 to 5000 | 200 to 5000 | 100 to 1000 |
| CC1(C)CCC(Nc2ncc(C(F)(F)F)c(-c3c[nH]c4cc(C#N)ccc34)n2)CN1 (stereo not drawn) [Compound 350] | 200 to 5000 | 20 to 200 | ≥ 5000 | ≥ 5000 | 100 to 1000 |
| N#Cc1ccc2c(-c3nc(N[C@@H]4CNCC[C@H]4F)ncc3C(F)(F)F)c[nH]c2c1 [Compound 351] | 200 to 5000 | < 20 | 200 to 5000 | 200 to 5000 | < 100 |
| CC(C)(C)OC(=O)N1CCC[C@H](Nc2ncc(C(F)(F)F)c(-c3c[nH]c4cc(P(C)(C)=O)ccc34)n2)C1 [Compound 352] | ≥ 5000 | ≥ 5000 | ≥ 5000 | ≥ 5000 | 1000 to 5000 |
| CP(C)(=O)c1cccc2c(-c3nc(NC4CCCNC4)ncc3C(F)(F)F)c[nH]c12 (stereo not drawn) [Compound 353] | 200 to 5000 | < 20 | ≥ 5000 | 200 to 5000 | < 100 |
| CP(C)(=O)c1ccc2c(-c3nc(NC4CCCNC4)ncc3C(F)(F)F)c[nH]c2c1 (stereo not drawn) [Compound 354] | 200 to 5000 | 20 to 200 | ≥ 5000 | ≥ 5000 | 1000 to 5000 |
| N#Cc1ccc2c(-c3nc(NC4CNCCC4O)ncc3C(F)(F)F)c[nH]c2c1 (stereo not drawn) [Compound 355] | 200 to 5000 | 20 to 200 | ≥ 5000 | ≥ 5000 | 100 to 1000 |
| CCc1cnc(NC2CCCNC2)nc1-c1c[nH]c2c(S(=O)(=O)C(C)C)cccc12 (stereo not drawn) [Compound 356] | ≥ 5000 | 20 to 200 | ≥ 5000 | ≥ 5000 | 100 to 1000 |
| CN(C)S(=O)(=O)c1ccc2c(-c3nc(NC4CCCNC4)ncc3C(F)(F)F)c[nH]c2c1 (stereo not drawn) [Compound 357] | 200 to 5000 | < 20 | 200 to 5000 | 200 to 5000 | 1000 to 5000 |
| CC(=O)c1ccc2c(-c3nc(N[C@H]4CCCNC4)ncc3C(F)(F)F)c[nH]c2c1 [Compound 359] | 200 to 5000 | < 20 | 200 to 5000 | 200 to 5000 | < 100 |
| CCc1cnc(N[C@H]2CCCNC2)nc1-c1c[nH]c2c(F)c(C#N)ccc12 [Compound 360] | ≥ 5000 | 20 to 200 | ≥ 5000 | ≥ 5000 | 1000 to 5000 |
| N#Cc1ccc2c(-c3nc(N[C@H]4CCCNC4)ncc3SC(F)F)c[nH]c2c1 [Compound 361] | 200 to 5000 | 20 to 200 | 200 to 5000 | ≥ 5000 | 100 to 1000 |
| CN1CCC[C@H](Nc2ncc(C(F)(F)F)c(-c3c[nH]c4cc(S(C)(=O)=O)ccc34)n2)C1 [Compound 364] | ≥ 5000 | 20 to 200 | ≥ 5000 | ≥ 5000 | 1000 to 5000 |
| O=S(=O)(CF)c1ccc2c(-c3nc(NC4CCCNC4)ncc3C(F)(F)F)c[nH]c2c1 (stereo not drawn) [Compound 365] | 200 to 5000 | < 20 | 200 to 5000 | 200 to 5000 | 100 to 1000 |
| CC1(O)CCN(S(=O)(=O)c2ccc3c(-c4nc(NC5CCCNC5)ncc4C(F)(F)F)c[nH]c3c2)C1 (stereo not drawn) [Compound 366] | 200 to 5000 | 20 to 200 | 200 to 5000 | 200 to 5000 | 1000 to 5000 |
| CCCc1cnc(N[C@H]2CCCNC2)nc1-c1c[nH]c2c(S(C)(=O)=O)c(C#N)ccc12 [Compound 367] | ≥ 5000 | 20 to 200 | ≥ 5000 | ≥ 5000 | 1000 to 5000 |
| N#Cc1ccc2c(-c3nc(NC4CNCC(F)C4)ncc3C(F)(F)F)c[nH]c2c1 (stereo not drawn) [Compound 368] | 200 to 5000 | 20 to 200 | ≥ 5000 | ≥ 5000 | 1000 to 5000 |

Now from value to compound, other results behind:

| IC50 [1] [nM] | IC50 [2] [nM] | IC50 (CDK9/Cyclin T1 complex) [nM] | IC50 (CDK2/Cyclin E1 complex) [nM] | SMILES | IC50 (HCC70 cells) [nM] |
| --- | --- | --- | --- | --- | --- |
| 200 to 5000 | < 20 | 200 to 5000 | 200 to 5000 | OCc1cncc(-c2ccc3c(-c4nc(NC5CCCNC5)ncc4C(F)(F)F)c[nH]c3c2)c1 (stereo not drawn) [Compound 318] | 100 to 1000 |
| 200 to 5000 | < 20 | ≥ 5000 | ≥ 5000 | Cn1cc(-c2ccc3c(-c4nc(NC5CCCNC5)ncc4C(F)(F)F)c[nH]c3c2)ccc1=O (stereo not drawn) [Compound 321] | 100 to 1000 |
| 200 to 5000 | < 20 | ≥ 5000 | 200 to 5000 | OCc1ncccc1-c1ccc2c(-c3nc(NC4CCCNC4)ncc3C(F)(F)F)c[nH]c2c1 (stereo not drawn) [Compound 323] | 100 to 1000 |
| 200 to 5000 | < 20 | 200 to 5000 | 200 to 5000 | FC(F)(F)c1cnc(NC2CCCNC2)nc1-c1c[nH]c2cc(-c3cnccn3)ccc12 (stereo not drawn) [Compound 328] | < 100 |
| 200 to 5000 | < 20 | 200 to 5000 | 200 to 5000 | Cc1noc(C)c1-c1ccc2c(-c3nc(N[C@H]4CCCNC4)ncc3C(F)(F)F)c[nH]c2c1 [Compound 330] | < 100 |
| 200 to 5000 | < 20 | 200 to 5000 | 200 to 5000 | FC(F)(F)c1cnc(N[C@H]2CCCNC2)nc1-c1c[nH]c2cc(-c3nccs3)ccc12 [Compound 332] | < 100 |
| 200 to 5000 | < 20 | ≥ 5000 | ≥ 5000 | O=c1[nH]cc(-c2ccc3c(-c4nc(NC5CCCNC5)ncc4C(F)(F)F)c[nH]c3c2)c(=O)[nH]1 (stereo not drawn) [Compound 333] | 1000 to 5000 |
| 200 to 5000 | 20 to 200 | 200 to 5000 | 200 to 5000 | O=C1CCc2ccc(-c3ccc4c(-c5nc(NC6CCCNC6)ncc5C(F)(F)F)c[nH]c4c3)cc2N1 (stereo not drawn) [Compound 334] | 100 to 1000 |
| 200 to 5000 | < 20 | 200 to 5000 | 200 to 5000 | Cc1ccncc1-c1ccc2c(-c3nc(NC4CCCNC4)ncc3C(F)(F)F)c[nH]c2c1 (stereo not drawn) [Compound 336] | < 100 |
| 200 to 5000 | 20 to 200 | 200 to 5000 | 200 to 5000 | CC(=O)NCc1cccc(-c2ccc3c(-c4nc(NC5CCCNC5)ncc4C(F)(F)F)c[nH]c3c2)c1 (stereo not drawn) [Compound 338] | 100 to 1000 |
| 200 to 5000 | 20 to 200 | ≥ 5000 | ≥ 5000 | FC(F)(F)c1cnc(NC2CCCNC2)nc1-c1c[nH]c2cc(-c3ccnc4ccccc34)ccc12 (stereo not drawn) [Compound 339] | 1000 to 5000 |
| 200 to 5000 | 20 to 200 | 200 to 5000 | 200 to 5000 | O=C(c1cccc(-c2ccc3c(-c4nc(NC5CCCNC5)ncc4C(F)(F)F)c[nH]c3c2)c1)N1CCCC1 (stereo not drawn) [Compound 340] | 1000 to 5000 |

From patent US20230000870A1, “METHODS OF TREATING CANCER IN BIOMARKER-IDENTIFIED PATIENTS WITH INHIBITORS OF CYCLIN-DEPENDENT KINASE 7 (CDK7)” (Syros Pharmaceuticals, Inc., priority 2019, published 2023)
